Laboratory results from patent US20070032418A1, “Small-molecule inhibitors of angiogenin and rnases and in vivo and in vitro methods of using same” (Ambion, Inc, priority 2003, published 2007).
“Also recorded” adds a separate entry of the source. Read-outs that look alike come from different tables or passages of the source.

Columns and labels:
angiogenin (ANG) = angiogenin (ANG) (Homo sapiens, UniProt P03950); experiment: Inhibition of ANG ribonucleolytic activity, HPLC assay of oligonucleotide cleavage; format: biochemical; settings: 20 mM Hepes, 100 mM NaCl
angiogenin (ANG), sequence (P03950 25-147): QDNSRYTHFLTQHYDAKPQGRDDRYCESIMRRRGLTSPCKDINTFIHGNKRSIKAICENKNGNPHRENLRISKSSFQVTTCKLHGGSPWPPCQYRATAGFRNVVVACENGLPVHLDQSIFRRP
Description: Reaction mixtures with and without test compounds were chromatographed on a Mono Q anion-exchange column with an NaCl gradient in 10 mM Tris, pH 8. […] This information was used to calculate kcat/Km values, which were then fitted to the equation (kcat/Km)i=(kcat/Km)0/[…], where (kcat/Km)i and (kcat/Km)0 are defined as the values in the presence and absence of inhibitor, respectively, and [I] is defined as the inhibitor concentration. At least four concentrations (in a range of about 10 μM-above 100 μM) were used in the final hit confirmation in order to distinguish all true hits.
Chemical structures of selected compounds are shown in these Tables and in FIGS. 4 and 5.

[1] = tested on: PC-3 human prostate tumor cells; experiment: PC-3 tumor formation in athymic mice; format: in vivo
Description: Compound NCI-65828 was identified by HTS as an ANG inhibitor. […] Each compound was administered 6 times per week, in doses of 40 μg, 8 μg, and 1.6 μg (about 2, 0.4 and 0.08 mg/kg/day). The compound was dissolved in DMSO, and control mice received a corresponding volume of DMSO (4%, 0.8% and 0%). Another control group received saline.
Another in vivo mouse experiment was performed using 8 or 12 mice per group. The experimental group was administered PC-3 cells and NCI-65828, as intraperitoneal injections (40 μg and 8 μg). A control group of mice was administered PC-3 cells and a related compound that was known to be ineffective at inhibiting ANG enzymatic activity. Mice were evaluated for number of animals that remained tumor free as a function of time, at intervals of 3 days from days 14-42 following the initial injection.
Concentrated stocks of inhibitors were prepared in dimethylsulfoxide (DMSO), and the inhibitors were diluted into phosphate-buffered saline (PBS); the final DMSO concentration for the 40 μg and 20 μg doses was 4% in PBS, and that for the 8 μg and 4 μg doses was 0.8% in PBS. Statistical significance (P values) was determined from Mantel-Cox tests performed on Kaplan-Meier survivor functions. Results for inhibitor-treated groups were compared to results obtained with the appropriate DMSO control groups. A positive control group of mice, administered antisense DNA specific for the ANG gene in PBS (no DMSO), was also included. ANG antisense DNA was shown previously to be extremely effective in this tumor model.
Tumor cells from a human prostate cancer (PC-3) were injected subcutaneously (s.c.) in the shoulder of 6-7 week old athymic (nude) mice on day 0. Treatment with the indicated amount of inhibitor (in 100 μL) was given subcutaneously in the same area as the cells, 6 times per week, with the first injection 5-10 minutes prior to injection of the cells. The total dosage was 0.4 mg to 2 mg per kg per day.

[2] = tested on: HT-29 human colonic adenocarcinoma cells; experiment: HT-29 tumor formation in athymic mice; format: in vivo; settings: local treatment s.c. 40 μg/day, 6×/week
Description: Mice were examined 2×/week for palpable tumors. Treatment doses: 40 μg/day (A and C); 8 μg/day (B). n=8 for all groups except the vehicle controls in A and B, where n=12.

E. coli RNase I = E. coli RNase I (Escherichia coli, UniProt P21338); experiment: Intactness of total RNA challenged with purified RNase; format: biochemical; settings: 100 uM inhibitor; E. coli RNase I 7 ng/ul; 100 ng/ul mouse liver total RNA, 23° C., 4 min
E. coli RNase I, sequence (P21338 24-268): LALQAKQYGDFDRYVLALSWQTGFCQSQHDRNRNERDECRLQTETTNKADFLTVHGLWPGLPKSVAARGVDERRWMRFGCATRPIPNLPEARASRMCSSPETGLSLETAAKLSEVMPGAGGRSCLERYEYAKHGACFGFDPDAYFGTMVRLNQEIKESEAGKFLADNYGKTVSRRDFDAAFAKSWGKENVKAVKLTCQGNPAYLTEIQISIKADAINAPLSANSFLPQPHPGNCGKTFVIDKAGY

[3] = pH 7.0, 37° C., read-out: Ki for inhibition of the ribonucleolytic activity of angiogenin
[4] = inhibition of ANG-catalyzed cleavage of an RNA oligonucleotide, 37° C., read-out: KI
[5] = PC-3 s.c., 8 μg s.c. 6 times per week
[6] = PC-3 s.c., 40 μg s.c. 6 times per week

| Compound | Ki (angiogenin (ANG); [3]) | Ki (angiogenin (ANG); [4]) | Appearance of tumors (FIGS. 1A and 1B) ([1]; PC-3, 40 μg and 8 μg, days 14-42, vs controls) | Rate of tumor development (preliminary test) ([1]; PC-3, s.c. 6 times per week, doses of 40 μg, 8 μg and 1.6 μg, vs control groups) | Percentage of Tumor-Bearing Mice, day 14 [1, 5] | Percentage of Tumor-Bearing Mice, day 17 [1, 5] | Percentage of Tumor-Bearing Mice, day 21 [1, 5] | Percentage of Tumor-Bearing Mice, day 24 [1, 5] | Percentage of Tumor-Bearing Mice, day 32 [1, 5] | Percentage of Tumor-Bearing Mice, day 35 [1, 5] | Percentage of Tumor-Bearing Mice, day 14 [1, 6] | Percentage of Tumor-Bearing Mice, day 17 [1, 6] | Percentage of Tumor-Bearing Mice, day 21 [1, 6] | Percentage of Tumor-Bearing Mice, day 24 [1, 6] | Percentage of Tumor-Bearing Mice, day 32 [1, 6] | Percentage of Tumor-Bearing Mice, day 35 [1, 6] | Time of appearance of tumors (Example 3, Table 1) ([1]; PC-3 s.c., treatment s.c. 6 times per week) | Formation of tumors (FIG. 1C) [2] | Protection of total RNA from degradation (E. coli RNase I) |
| --- | --- | --- | --- | --- | --- | --- | --- | --- | --- | --- | --- | --- | --- | --- | --- | --- | --- | --- | --- |
| Nc1ccc(/N=N/c2ccc(-c3ccc(O)cc3)cc2)c2ccc(S(=O)(=O)O)cc12 [NCI-65828, 8-amino-5-(4′-hydroxybiphenyl-4-ylazo)naphthalene-2-sulfonate] | 81 µM | 81 µM | delay or prevention; also recorded: delayed the appearance of tumors | developed tumors at a slower rate | 0% | 38% | 50% | 100% | 100% | 100% | 0% | 25% | 50% | 100% | 100% | 100% | delayed considerably the time of appearance of tumors | delay or prevention; also recorded: significantly delayed the formation of tumors |  |
| Benzopurpurin B | 5 µM | 5 µM |  |  |  |  |  |  |  |  |  |  |  |  |  |  |  |  | significant protection from RNA degradation |
